Test results reported in ChEMBL document CHEMBL5532698, “2,3-Dihydroquinazolin-4(1H)-ones and quinazolin-4(3H)-ones as broad-spectrum cytotoxic agents and their impact on tubulin polymerisation” (RSC Med Chem, 2024).
The source made the active and inactive calls. No cut-off for these calls is given here.

Key:
[1] = biological target: Tubulin (Homo sapiens) (UniProt P68371+Q9H4B7+P0DPH7+P68366+Q13509+Q71U36+P04350+Q3ZCM7+P07437+P68363+Q9BQE3+Q6PEY2+Q13885+Q9BVA1+Q9BUF5); experiment: Inhibition of tubulin (unknown origin) polymerization assessed as reduction microtubule formation at 10 uM by fluorometric analysis; format: protein-complex assay
[2] = tested on: MIA PaCa-2; experiment: Induction of G2/M phase cell cycle arrest in human MIA PaCa-2 cells assessed as sub G1 phase cells at 0.1 uM incubated for 24 hrs by PI/RNase staining based analysis (reference value: 4 +/- 2%); format: functional
[3] = tested on: A549; experiment: Antiproliferative activity against human A549 cells assessed as reduction in cell viability incubated for 48 hrs by MTT assay; format: functional, cell-based; details: A549, 48 h
[4] = tested on: HepG2; experiment: Antiproliferative activity against human HepG2 cells assessed as reduction in cell viability incubated for 48 hrs by MTT assay; format: functional, cell-based; details: HepG2, 48 h
[5] = tested on: MIA PaCa-2; experiment: Induction of G2/M phase cell cycle arrest in human MIA PaCa-2 cells at 0.1 uM incubated for 24 hrs by PI/RNase staining based analysis (reference value: 20 +/- 1%); format: functional
[6] = tested on: MIA PaCa-2; experiment: Induction of G2/M phase cell cycle arrest in human MIA PaCa-2 cells at 0.5 uM incubated for 24 hrs by PI/RNase staining based analysis (reference value: 20 +/- 1%); format: functional
[7] = tested on: MIA PaCa-2; experiment: Induction of G2/M phase cell cycle arrest in human MIA PaCa-2 cells assessed as sub G1 phase cells at 0.5 uM incubated for 24 hrs by PI/RNase staining based analysis (reference value: 4 +/- 2%); format: functional
[8] = tested on: MIA PaCa-2; experiment: Induction of G2/M phase cell cycle arrest in human MIA PaCa-2 cells assessed as G1 phase cells at 0.1 uM incubated for 24 hrs by PI/RNase staining based analysis (reference value: 66 +/- 2%); format: functional
[9] = tested on: MIA PaCa-2; experiment: Induction of G2/M phase cell cycle arrest in human MIA PaCa-2 cells assessed as S phase cells at 0.1 uM incubated for 24 hrs by PI/RNase staining based analysis (reference value: 11 +/- 1%); format: functional
[10] = tested on: WRL68; experiment: Antiproliferative activity against human WRL68 cells assessed as reduction in cell viability incubated for 48 hrs by MTT assay; format: functional, cell-based; details: WRL68, 48 h
[11] = tested on: MIA PaCa-2; experiment: Induction of G2/M phase cell cycle arrest in human MIA PaCa-2 cells assessed as S phase cells at 0.5 uM incubated for 24 hrs by PI/RNase staining based analysis (reference value: 11 +/- 1%); format: functional
[12] = tested on: HCT-116; experiment: Antiproliferative activity against human HCT-116 cells assessed as reduction in cell viability incubated for 48 hrs by MTT assay; format: functional, cell-based; details: HCT-116, 48 h
[13] = tested on: MIA PaCa-2; experiment: Induction of G2/M phase cell cycle arrest in human MIA PaCa-2 cells assessed as G1 phase cells at 0.5 uM incubated for 24 hrs by PI/RNase staining based analysis (reference value: 66 +/- 2%); format: functional
[14] = tested on: HeLa; experiment: Antiproliferative activity against human HeLa cells assessed as reduction in cell viability incubated for 48 hrs by MTT assay; format: functional, cell-based

With `COC(=O)Nc1nc2cc(C(=O)c3cccs3)ccc2[nH]1` [NOCODAZOLE] the inhibition [1] was “Active”, the Activity [2] was 21% and the IC50 [3] was 5.09 µM. It also gave an IC50 [4] of 5.08 µM, an Activity [5] of 37% and an Activity [6] of 60%. The Activity [7] was 14%, the Activity [8] was 34% and the Activity [9] was 8%. The IC50 [10] was 7.56 µM, the Activity [11] was 9% and the IC50 [12] was 1.81 µM. It also gave an Activity [13] of 16% and an IC50 [14] of 2.22 µM.
